Data set [1] is described as follows: Oral bioavailability in rat (dose 5 mg/kg). It counts as ADME, organism-based. Particulars: in vivo.
The subject of a further data set is Pseudomonas aeruginosa. Put plainly: Antibacterial activity against Pseudomonas aeruginosa A-5007 was determined. The format is functional. Particulars: Pseudomonas aeruginosa; read-out: MIC.
Data set [2] concerns Escherichia coli. Put plainly: Antibacterial activity against Escherichia coli JUHL was determined. It counts as functional. Conditions: Escherichia coli; read-out: MIC.
The subject of data set [3] is Mus musculus. Put plainly: Compound was tested for its effective dose against Staphylococcus aureus NCTC-10649M in mice upon peroral administration; Mice were infected with 1000xLD50. It counts as functional. Particulars: po.
The test system of another data set is Enterococcus faecium. Put plainly: Antibacterial activity against Enterococcus faecium ATCC 8043 was determined. It counts as functional. Conditions: Enterococcus faecium, ATCC 8043; read-out: MIC.
Data set [4] in a line: Compound was evaluated for maximal plasma concentration in rat upon 5 mg/kg upon oral administration. It counts as ADME, organism-based. On the set-up: dose 5 mg/kg, route oral.
For the next data set, the system named is Klebsiella pneumoniae. Put plainly: Antibacterial activity against Klebsiella pneumoniae ATCC 8045 was determined. Particulars: Klebsiella pneumoniae, ATCC 8045; read-out: MIC. The format is functional.
For the next data set, the system named is Streptococcus pyogenes. Put plainly: Antibacterial activity against Streptococcus pyogenes EES61 was determined. It counts as functional. Conditions: Streptococcus pyogenes; read-out: MIC.
Data set [5] deals with Staphylococcus aureus. Put plainly: Antibacterial activity against Staphylococcus aureus NCTC-10649M was determined. It counts as functional. Particulars: Staphylococcus aureus; read-out: MIC.
The subject of the next data set is Streptococcus equinus. The data set is described as follows: Antibacterial activity against Gram-positive Streptococcus bovis A5169 was determined. The format is functional. Particulars: Streptococcus equinus; read-out: MIC.
The subject of data set [6] is Staphylococcus aureus. Put plainly: Effective dose against Staphylococcus aureus NCTC-10649M in mice upon subcutaneous administration. It counts as functional. Particulars: sc.
In data set [7] the test system is Escherichia coli. The data set is described as follows: Effective dose against Escherichia coli JUHL in mice upon subcutaneous administration. The format is functional. Conditions: sc.
The next data set concerns Providencia stuartii. Put plainly: Antibacterial activity against Gram-negative Providencia Stuartii CMX640 was determined. It counts as functional. Particulars: Providencia stuartii; read-out: MIC.
The nature of data set [8]: Compound was tested for its effective dose against Escherichia coli JUHL in mice upon peroral administration. The format is functional. Conditions: Mus musculus, po.
Data set [9] deals with Staphylococcus aureus. The data set is described as follows: Antibacterial activity against Staphylococcus aureus A1775 was determined. Particulars: Staphylococcus aureus; read-out: MIC. It counts as functional.
For the next data set, the system named is Klebsiella aerogenes. The data set is described as follows: Antibacterial activity against Enterobacter aerogenes ATCC 13048 was determined. The format is functional. Conditions: Klebsiella aerogenes, ATCC 13048; read-out: MIC.
The subject of another data set is DNA gyrase (bacterial). Put plainly: Compound was tested for bacterial DNA gyrase activity. Conditions: Bacteria.
The test system of data set [10] is Staphylococcus aureus. Put plainly: Effective dose against Staphylococcus aureus NCTC-10649M in mice upon peroral administration. It counts as functional. Conditions: po.
In data set [11] the test system is Mus musculus. Put plainly: Compound was tested for its effective dose against Staphylococcus aureus NCTC-10649M in mice upon peroral administration. The format is functional. Conditions: po.
Data set [12] has as its system Mus musculus. The data set is described as follows: Compound was tested for its effective dose against Staphylococcus aureus NCTC-10649M in mice upon subcutaneous administration. It counts as functional. Conditions: sc.

≈ marks a conversion by molar mass, not a printed value. Where only a bound is given, the exact number is not on record here.

For orientation: bioavailability means the share of a dose that reaches the circulation, judged against a reference dose that is usually intravenous. A lower bioavailability goes with poor availability. Usually MIC stands for the lowest concentration found to suppress growth. The ED50 is the dose that gives a 50% effect, or the effect in half of the subjects. As a reminder, the Cmax is the peak of the concentration-time curve. On to `Cc1c(N2C[C@@H](N)[C@@H](F)C2)c(F)cn2c(=O)c(C(=O)O)cc(C3CC3)c12`, for which the bioavailability in [1] was 34%. For the same compound, the MIC with Pseudomonas aeruginosa was 0.39 µg/mL (≈ 1.07 µM); in the data set on Escherichia coli [2], 0.02 µg/mL (≈ 0.055 µM); in the data set on Enterococcus faecium it was 0.1 µg/mL (≈ 0.275 µM); in the data set on Klebsiella pneumoniae, 0.05 µg/mL (≈ 0.138 µM); in the data set on Streptococcus pyogenes, 0.1 µg/mL (≈ 0.275 µM); with Staphylococcus aureus [5], 0.02 µg/mL (≈ 0.055 µM). The MIC worked out at 0.2 µg/mL (≈ 0.55 µM) with Streptococcus equinus, 0.78 µg/mL (≈ 2.15 µM) with Providencia stuartii, 1.56 µg/mL (≈ 4.29 µM) in the data set with Staphylococcus aureus [9] and 0.05 µg/mL (≈ 0.138 µM) in the data set on Klebsiella aerogenes. Besides, the ED50 in the data set on Mus musculus [3] came to 7.7 mg/kg/day; with Staphylococcus aureus [6], 1.5 mg/kg/day; in the data set with Escherichia coli [7], 1.8 mg/kg/day; in [8] it was 7.4 mg/kg/day. Besides, the Cmax in data set [4] was 900 ng/mL.
As to `Cc1c(N2CCC(F)C2)c(F)cn2c(=O)c(C(=O)O)cc(C3CC3)c12` (stereo not drawn), the bioavailability in data set [1] is 13%. Besides, the MIC in the data set with Pseudomonas aeruginosa turned out to be 1.56 µg/mL (≈ 4.48 µM); in the data set with Escherichia coli [2] it was 0.1 µg/mL (≈ 0.287 µM); in the data set with Enterococcus faecium, 0.05 µg/mL (≈ 0.144 µM); in the data set on Klebsiella pneumoniae, 0.1 µg/mL (≈ 0.287 µM); with Streptococcus pyogenes, 0.1 µg/mL (≈ 0.287 µM); in the data set on Staphylococcus aureus [5] it was 0.02 µg/mL (≈ 0.0574 µM). For the same compound, the MIC was found to be 0.1 µg/mL (≈ 0.287 µM) in the data set on Streptococcus equinus, 0.78 µg/mL (≈ 2.24 µM) in the data set with Providencia stuartii, 1.56 µg/mL (≈ 4.48 µM) in the data set on Staphylococcus aureus [9] and 0.39 µg/mL (≈ 1.12 µM) with Klebsiella aerogenes. Moreover, the Cmax in data set [4] came to 350 ng/mL. In addition, the ED50 in the data set on Staphylococcus aureus [6] was above 12 mg/kg/day; in the data set with Staphylococcus aureus [10], above 50 mg/kg/day. Besides, in the data set with DNA gyrase (bacterial), the CC50 came out at 0.6 µg/mL (≈ 1.72 µM).
As to `O=C(O)c1cn(C2CC2)c2cc(N3CCNCC3)c(F)cc2c1=O` [CIPROFLOXACIN], the MIC with Pseudomonas aeruginosa was determined as 0.2 µg/mL (≈ 0.604 µM); in the data set on Enterococcus faecium, 0.78 µg/mL (≈ 2.35 µM); with Klebsiella pneumoniae, 0.02 µg/mL (≈ 0.0604 µM); with Staphylococcus aureus [5], 0.39 µg/mL (≈ 1.18 µM); in the data set on Streptococcus equinus, 0.78 µg/mL (≈ 2.35 µM); in the data set with Providencia stuartii, 1.56 µg/mL (≈ 4.71 µM). Further, the results for the MIC with Staphylococcus aureus [9] and with Klebsiella aerogenes were above 100 µg/mL and 0.02 µg/mL (≈ 0.0604 µM), respectively. The median effective dose (ED50) in the data set on Mus musculus [11] amounted to 28.2 mg/kg/day; with Escherichia coli [7], 0.1 mg/kg/day; in [8], 1 mg/kg/day; in the data set on Mus musculus [12] it was 4.1 mg/kg/day.

These data come from ChEMBL document CHEMBL1130900, “Synthesis and structure-activity relationships of 2-pyridones: II. 8-(Fluoro-substituted pyrrolidinyl)-2-pyridones as antibacterial agents” (Bioorg Med Chem Lett, 1998).
